From US4444780A, “Method for treating atopic dermatitis” (priority 1982, dated 1984)
“Also recorded” adds a separate entry of the source. Where two headings read alike, the source gives them in different places.

What was measured:
[1] = test system: passive cutaneous anaphylaxis reaction; assay: Passive Cutaneous Anaphylaxis Test (PCA), topical antiallergic activity; assay type: in vivo, Male Sprague Dawley rats; details: for inhibition in vivo at 0.02 % / inhibition in vivo at 0.2 % / inhibition in vivo at 2 % / inhibition in vivo at 0.01 % / inhibition in vivo at 1 %: Rattus norvegicus, read-out: Percent Inhibition
Text: Male Sprague Dawley rats (175-200 grams) were sensitized intradermally with 0.1 cc of high dilution of antiovalbumin antiserum (IgE-containing) that was predetermined to cause a well circumscribed and reproducible skin wheal response. Two intradermal sensitization sites were applied to the backs of each rat. […] One hour later the rats were challenged intravenously with a solution containing 0.5% ovalbumin and 0.5% Evans blue dye in a saline vehicle. Twenty minutes later the rats were killed by carbon dioxide asphyxiation, the dorsal skin reflected and the blue wheal measured as the mean of the two largest perpendiculars. This mean was used to calculate the area of the wheal according to [A=π(d/2)^2 ]. The wheal area under the drug-treated site was used as an index of local topical activity and the distant site served as an index of systemic activity.

[2] = biological target: T1, Δ5 -lipoxygenase (Rattus norvegicus, UniProt P12527); assay: Lipoxygenase activity in Rat Basophilic Leukemia Cells (RBL-1), 5-HETE formation; assay type: cell-based; details: for effect on lipoxygenase activity (in words): rat basophilic cells
T1 construct: Crude cell extract was used as the source of the Δ5 -lipoxygenase enzyme; endogenous in cells; host or cells: RBL-1 (rat basophilic leukemia) cells, whole or sonicated crude extract
T1 sequence (P12527 1-673): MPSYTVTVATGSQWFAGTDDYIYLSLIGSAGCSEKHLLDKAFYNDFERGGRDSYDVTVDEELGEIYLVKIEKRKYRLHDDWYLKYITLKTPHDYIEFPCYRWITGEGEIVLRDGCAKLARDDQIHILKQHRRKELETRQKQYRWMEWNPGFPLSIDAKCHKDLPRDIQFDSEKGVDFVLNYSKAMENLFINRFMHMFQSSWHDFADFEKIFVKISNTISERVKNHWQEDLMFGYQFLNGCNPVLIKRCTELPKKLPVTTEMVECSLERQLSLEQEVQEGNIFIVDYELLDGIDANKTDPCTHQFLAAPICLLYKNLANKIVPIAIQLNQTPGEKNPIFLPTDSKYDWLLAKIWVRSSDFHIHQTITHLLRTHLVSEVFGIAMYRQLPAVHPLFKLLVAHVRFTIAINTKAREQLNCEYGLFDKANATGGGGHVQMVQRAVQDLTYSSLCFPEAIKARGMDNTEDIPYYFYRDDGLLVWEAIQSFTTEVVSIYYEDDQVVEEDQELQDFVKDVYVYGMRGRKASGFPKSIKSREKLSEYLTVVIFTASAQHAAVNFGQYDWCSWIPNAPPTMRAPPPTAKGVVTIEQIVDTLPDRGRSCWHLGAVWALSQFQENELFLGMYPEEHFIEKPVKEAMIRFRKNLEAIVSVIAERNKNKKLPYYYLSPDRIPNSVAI
Procedure: Rat basophilic leukemia cells (RBL-1) are basophilic members of the leukocyte series and constitute a circulating form of the mast cell, i.e. they share many or all of the biochemical features of the mast cell involved in mediator release. As leukemic cells they are readily available as they can be grown in culture. RBL-1 cells were grown in minimal essential medium (MEM) containing 10% fetal calf serum, 5% calf serum, 2 mM glutamine, and 50 μg/ml gentamicin. The cells were harvested for each assay, washed once with 50 mM potassium phosphate, 1 mM EDTA, and 0.1% gelatin, pH=7.0. The cells were then resuspended to a concentration of 1.85×10^7 cells/ml. For broken cell assays (i.e. to measure direct effects on the enzyme), these cells were sonicated in an ultrasonic sonifier for 3 minutes while maintaining the sample temperature at 4° C. Crude cell extract was used as the source of the Δ5 -lipoxygenase enzyme. […] The reaction was stopped by the addition of 1 M citric acid to give a final pH of approximately 3.5. The reaction mixture was extracted with diethylether, brought to dryness under a stream of nitrogen and the residues were resuspended and spotted on Gilman ITLC silica gel-impregnated glass filter strips. Synthetic hydroxyeicosotetraenoic acid (5-HETE) standard was spotted with each sample and the sheets were developed in isoctane:2-butanone:glacial acetic acid (100:9:1). After development, the sheets were dried, and the 5-HETE standard was visualized in a tank of iodine crystals. Areas corresponding to 5-HETE were quantitated by liquid scintillation counting. The remainder of each lane was also counted in four sections. Activity was determined as the percent conversion of the total counts in each lane to the area corresponding to 5-HETE. Percent inhibition was calculated from the change in percent conversion in the presence of drug. Blanks determined in the presence of boiled cells were subtracted from all values.

[3] = test system: K^+ -stimulated Ca^++ -uptake in rabbit aortic slices; assay: Calcium Uptake in Rabbit Aorta (K+-stimulated Ca++ uptake in aortic slices); assay type: cell-based, New Zealand white rabbits; details: for inhibition of K+-stimulated Ca++ uptake (in words): rabbit aortic slices, FIG. 2; for effects on calcium mechanisms / calcium movement assays (in words): summary over aortic uptake and contraction assays
Procedure: Female, New Zealand white rabbits (1-2 kg) were sacrificed by cervical dislocation, and the thoracic […] was immediately removed, cleaned, and sliced into rings (5-20 mg). The tissue was preincubated at 37° C. for 60 minutes. […] After allowing radioactive calcium uptake to occur for 45 minutes, the reaction was stopped by transferring the tissue to a wash-out solution containing 80 mM LaCl3 for 30 minutes. The tissue was removed, blotted of excess moisture, and weighed. The aortic slices were then placed into scintillation vials containing 1 ml Protosol tissue solubilizer and incubated overnight at 55° C. After coding and acidifying, the samples were counted to determine ^45 Ca uptake. Sample results were normalized to counts per minutes per mg, wet tissue weight.

[4] = test system: K^+ -Stimulated Ca^++ -mediated Contractions of Rabbit Aortic Strips; assay: Potassium-Induced Calcium-Mediated Contraction of Aortic Strips; assay type: cell-based, New Zealand strain rabbits; details: for IC50: Oryctolagus cuniculus, read-out: IC50, K+-stimulated Ca++-mediated contractions
Text: New Zealand strain rabbits (1-1.5 kg) were sacrificed by cervical dislocation and the thoracic cavity was opened to expose a section of the aorta. A section of the aorta from the diaphragm to the aortic arch was isolated, dissected out and immediately placed in chilled Krebs bicarbonate buffer solution. A 2 inch section of the aorta was supported on a glass rod in a petri dish with chilled Krebs bicarbonate solution and cleaned of excess tissue. The aorta was then cut into helical strips (3×30 mm) and suspended from a FT03 isometric force displacement transducer coupled to a Beckman recorder. The tissue bath was filled with Krebs bicarbonate buffer maintained at 37° C. and bubbled with 95% 02 and 5% CO2. The helical strips were allowed to equilibrate for 1.5 to 2 hours with a 4 gram resting load. The tissues were dosed in a cumulative manner with 10 mM, 15 mM, 20 mM, 30 mM, 40 mM, 80 mM and 120 mM KCl. The tissues were washed several times after the KCl treatment and were allowed to equilibrate for 1-1.5 hours until a baseline equivalent to 4 grams tension was achieved. A second dose-response to KCl was repeated and again washed and allowed to equilibrate. […] Changes in grams tension were recorded.

[5] = RBL-1, read-out: % Inhibition of lipoxygenase activity
[6] = RBL-1, 1 μM, read-out: % Inhibition of lipoxygenase activity
[7] = RBL-1, 100 μM, read-out: % Inhibition of lipoxygenase activity

SMILES: CN(C)CCOC(c1ccccc1)c1ccccc1 [Diphenhydramine, diphenhydramine]
- inhibition in vivo at 0.02 % ([1]; Topical Dose 0.02%): 0%
- inhibition in vivo at 0.2 % ([1]; Topical Dose 0.20%): 8.5%
- inhibition in vivo at 2 % ([1]; Topical Dose 2.00%): 43.9%
- Significance (P < .05) of inhibition ([1]; Topical Dose 0.02%): No
- Significance (P < .05) of inhibition ([1]; Topical Dose 0.20%): No
- Significance (P < .05) of inhibition ([1]; Topical Dose 2.00%): No
- activity in the PCA test (in words) ([1]; topical): inactive

SMILES: CN(C)CCOc1ccccc1Cc1ccccc1 [Phenyltoloxamine, phenyltoloxamine]
- inhibition in vivo at 0.02 % ([1]; Topical Dose 0.02%): 2.6%
- inhibition in vivo at 0.2 % ([1]; Topical Dose 0.20%): 14.3%
- inhibition in vivo at 2 % ([1]; Topical Dose 2.00%): 25.9%
- Significance (P < .05) of inhibition ([1]; Topical Dose 0.02%): No
- Significance (P < .05) of inhibition ([1]; Topical Dose 0.20%): No
- Significance (P < .05) of inhibition ([1]; Topical Dose 2.00%): No
- activity in the PCA test (in words) ([1]; topical): inactive

SMILES: CC[C@@H](CO)NC(=O)[C@@H]1C=C2c3cccc4c3c(cn4C)C[C@H]2N(C)C1 [Methysergide, methysergide]
- inhibition at 1 µM [2, 5]: 1%
- inhibition at 100 µM [2, 5]: 30%
- effect on lipoxygenase activity (in words) [2]: None of the compounds produced significant inhibition

SMILES: CN1CCC(=C2c3ccccc3C=Cc3ccccc32)CC1 [Cyproheptadine, cyproheptadine]
- inhibition in vivo at 0.01 % ([1]; topical): 11.7%
- inhibition in vivo at 1 % ([1]; topical): 98.1%
- Significance (P < .05) of inhibition ([1]; Topical Dose 0.01%): No
- Percent Inhibition ([1]; Topical Dose 0.10%): 25.0%
- Significance (P < .05) of inhibition ([1]; Topical Dose 0.10%): Yes
- Significance (P < .05) of inhibition ([1]; Topical Dose 1.00%): Yes
- activity in the PCA test (in words) ([1]; topical): potent topical antiallergic effect
- topical ED50, inhibition in the PCA test ([1]; topical 0.1 ml, 1 hour before challenge, vehicle water/alcohol/N-decylmethylsulfoxide, 95% F.L. 0.07, 0.25): 0.13%
- inhibition of cutaneous allergic reaction (in words) ([1]; topical, 1% dose): virtually complete inhibition
- IC50 ([3]; Oryctolagus cuniculus, read-out: IC50, K+-stimulated Ca++ uptake): ~1000 nM
- inhibition of vascular contraction (in words) ([4]; rabbit aortic strips): potent inhibitors
- inhibition at 100 µM [2, 5]: 78%
- effect on lipoxygenase activity (in words) [2]: statistically equipotent effects on lipoxygenase activity from either whole or broken cells

SMILES: COc1ccc(CCN(C)CCCC(C#N)(c2ccc(OC)c(OC)c2)C(C)C)cc1OC (stereo not drawn) [Verapamil, verapamil]
- inhibition in vivo at 1 % ([1]; topical): 0%
- Significance (P < .05) of inhibition ([1]; Topical Dose 1.00%): No
- activity in the PCA test (in words) ([1]; topical): totally inactive
- IC50 [4]: 550 nM
- inhibition of vascular contraction (in words) ([4]; rabbit aortic strips): potent inhibitors
- inhibition at 1 µM [2, 5]: 0%
- inhibition at 100 µM [2, 5]: 51%
- effect on lipoxygenase activity (in words) [2]: slight activity; also recorded: None of the compounds produced significant inhibition with the exception of the very high dose (1×10^-4 M) of verapamil

SMILES: Fc1ccc(C(c2ccc(F)cc2)N2CCN(C/C=C/c3ccccc3)CC2)cc1 [Flunarizine, flunarizine]
- inhibition in vivo at 0.02 % ([1]; Topical Dose 0.02%): 16.3%
- inhibition in vivo at 0.2 % ([1]; Topical Dose 0.20%): 13%
- inhibition in vivo at 2 % ([1]; Topical Dose 2.00%): 17.2%
- Significance (P < .05) of inhibition ([1]; Topical Dose 0.02%): No
- Significance (P < .05) of inhibition ([1]; Topical Dose 0.20%): No
- Significance (P < .05) of inhibition ([1]; Topical Dose 2.00%): No
- activity in the PCA test (in words) ([1]; topical): inactive

SMILES: OCCOCCN1CCN(C(c2ccccc2)c2ccc(Cl)cc2)CC1 (stereo not drawn) [Hydroxyzine, hydroxyzine]
- inhibition in vivo at 0.01 % ([1]; Topical Dose 0.01%): 0%
- inhibition in vivo at 1 % ([1]; Topical Dose 1.00%): 0%
- Significance (P < .05) of inhibition ([1]; Topical Dose 0.01%): No
- Percent Inhibition ([1]; Topical Dose 0.10%): 9.7%
- Significance (P < .05) of inhibition ([1]; Topical Dose 0.10%): No
- Significance (P < .05) of inhibition ([1]; Topical Dose 1.00%): No
- activity in the PCA test (in words) ([1]; topical): totally inactive
- inhibition of K+-stimulated Ca++ uptake (in words) [3]: did not produce 50% inhibition even at a concentration of an order of magnitude greater than the IC50 for cyproheptadine
- effects on calcium mechanisms / calcium movement assays (in words) [3]: marginal effects
- IC50 ([4]; rabbit aortic strips): 50000 nM
- inhibition of vascular contraction (in words) ([4]; rabbit aortic strips): orders of magnitude less potent
- inhibition at 1 µM [2, 6]: 0%
- inhibition at 100 µM [2, 7]: 15%
- effect on lipoxygenase activity (in words) [2]: totally inactive; also recorded: None of the compounds produced significant inhibition

SMILES: CN(C)CCC(c1ccc(Cl)cc1)c1ccccn1 (stereo not drawn) [Chlorpheniramine, chlorpheniramine]
- inhibition in vivo at 0.02 % ([1]; Topical Dose 0.02%): 20%
- inhibition in vivo at 0.2 % ([1]; Topical Dose 0.20%): 16.3%
- inhibition in vivo at 2 % ([1]; Topical Dose 2.00%): 16.7%
- Significance (P < .05) of inhibition ([1]; Topical Dose 0.02%): No
- Significance (P < .05) of inhibition ([1]; Topical Dose 0.20%): No
- Significance (P < .05) of inhibition ([1]; Topical Dose 2.00%): No
- activity in the PCA test (in words) ([1]; topical): totally inactive
- Inhibition of 45Ca++ Uptake Aortic Slices (summary grade) ([3]; Table 4 grade, symbols not defined): +
- inhibition of K+-stimulated Ca++ uptake (in words) [3]: totally inactive
- effects on calcium mechanisms / calcium movement assays (in words) [3]: marginal effects
- inhibition at 1 µM [2, 6]: 0%
- inhibition at 100 µM [2, 7]: 1%
- effect on lipoxygenase activity (in words) [2]: totally inactive; also recorded: None of the compounds produced significant inhibition
